This note sets out measurements from patent US6380262B1, “5-membered ring compounds” (Takara Shuzo Co., Ltd., priority 1998, dated 2002).

Where two headings read alike, the source gives them in different places. Numbered stars: 1 amine (or outer) side, 2 acyl side, 3 side chain; on linkers, the order of the positions; unused ones are H or OH. Bridge positions count the residues as written; N and C are the ends. Square brackets hold non-standard residues; d marks the D form. Peptide text beside a SMILES is read from it. I, II: the chains in the order shown. Actinocin(9to1) = Cc1c2oc3c(C)ccc(C(=O)[*:1])c3nc-2c(C(=O)[*:2])c(N)c1=O; NMeV = CN[C@H](C(=O)O)C(C)C; Sar = CNCC(=O)O Some results are limits rather than exact numbers.

Data set [1] in a line: single oral administration to a rat (death). As to conditions: single dosage of 1000 mg/kg. The data set is classed as in vivo. The protocol:
No toxicity is observed when a physiologically effective amount of the compound of the present invention or an optical isomer thereof, or a salt thereof is administered.

Data set [2] relates to human influenza virus A1/FM/1/47 (ATCC VR-97). Description: therapeutic effect in mice infected with influenza virus. It counts as in vivo, BALB/c mice. As to conditions: control 4 out of 11 died. How it is done:
(24) Therapeutic effects of cyclopentenone and 2-hydroxy-4-glutathion-S-yl-2-cyclopenten-1-one were examined by conducting experiments in which mice were infected with influenza virus.
Each of 4 weeks old female BALB/c mice was intranasally infected with 1×10^4 FFU of human influenza virus A1/FM/1/47 (ATCC VR-97) which had been propagated in a hen's egg.
Immediately after the infection with virus, single dose of 1 mg/kg of cyclopentenone, or 3 mg/kg or 30 mg/kg of 2-hydroxy-4-glutathion-S-yl-2-cyclopenten-1-one was intraperitoneally administered to the mouse infected with influenza virus.
Phosphate buffered saline was administered to control mice.
As a result, 4 out of 11 mice in the control group died by day 16. On the other hand, the numbers of dead mice were only 1 out of 11, 1 out of 11 and 1 out of 10 for the groups administered with 1 mg/kg of cyclopentenone, 3 mg/kg of 2-hydroxy-4-glutathion-S-yl-2-cyclopenten-1-one and 30 mg/kg of 2-hydroxy-4-glutathion-S-yl-2-cyclopenten-1-one, respectively.

In data set [3] the test system is HL-60 cells. Description: measurement of apoptotic cells using FACScan. It counts as cell-based, human. As to conditions: HL-60, 24 hours; actinomycin D 10 μl of 0.5 mg/ml in 5 ml. The protocol: (§1) (3) HL-60 cells were cultured at 37° C. in RPMI 1640 medium (Bio Whittaker) containing 10% fetal calf serum (JRH) which had been treated at 56° C. for 30 minutes and suspended in RPMI 1640 medium at a concentration of 2.5×10^5 cells/5 ml.
(§2) 10 μl of one of appropriate dilutions of the hexanoyl GM solutions in 20 mM Tris-HCl buffer or the di-t-butyl GD solution in 70% aqueous ethanol solution was added to 5 ml of the suspension. The mixtures were incubated at 37° C. for 24 hours in the presence of 5% CO2. 10 μl of aqueous actinomycin D (Sigma) solution (0.5 mg/ml), which is known as a reagent that induces apoptosis, was used in place of the sample and the mixture was incubated under the same conditions for confirmation.
(§3) Measurement of apoptotic cells using FACScan as described in Saibo Kogaku, Bessatsu (Cell Technology, Suppl.) Jikken Protocol Series: Apoptosis Jikken Protocol (Experimental Protocol Series: Experimental Protocols for Apoptosis) (Shujun-sha) pp. 129-130 and analysis of DNA fragmentation as described in Bio Manual UP Series: Saishin Apoptosis Jikken-ho (Bio Manual UP Series: Current Experimental Methods for Apoptosis) (Yodo-sha) pp. 61-63 were carried out using cells cultured in the same manner as that described above.

Data set [4] has as its system HL-60 cells. Briefly: analysis of DNA fragmentation. It counts as cell-based, human. As to conditions: HL-60, 24 hours; actinomycin D 10 μl of 0.5 mg/ml in 5 ml. The protocol: as §1, §2, §3
A short description of data set [5]: single oral administration to a mouse (death). The data set is classed as in vivo. The conditions noted are these: single dosage of 100 mg/kg.
Data set [6] deals with HL-60 (ATCC CCL-240) cells. Description: antiproliferation activity against tumor cells and apoptosis induction, MTT measurement system and optical microscope. The data set is classed as cell-based, human. The conditions noted are these: for induction of apoptosis (apoptosis corpuscles under an optical microscope): HL-60, 96-well plate culture. How it is done: (1) 100 μl of a suspension containing HL-60 (ATCC CCL-240) cells in RPMI-1640 medium (Nippon Suisan Kaisha) containing 10% fetal calf serum (Gibco) which had been treated at 56° C. for 30 minutes at a concentration of 5×10^4 cells/ml was dispensed into each well of a 96-well microtiter plate. 10 μl of one of 2-fold serial dilutions with water of 8.3 mM hexanoyl GM solution in 25 mM Tris-HCl buffer was added to the well of the plate. The plate was incubated at 37° C. for 48 hours in the presence of 5% CO2. After the cells were examined under an optical microscope, 10 μl of 5 mg/ml 3-(4,5-dimethylthiazol-2-yl)-2,5-diphenyltetrazolium bromide (MTT; Sigma) solution in phosphate buffered saline was added to the well. The plate was incubated for additional 4 hours. 100 μl of 2-propanol containing 0.04 N HCl was added to the well, the mixture was stirred, and the absorbance at 590 nm was measured.
(2) 10 μl of one of 2-fold serial dilutions with 70% aqueous ethanol solution of 19 mM di-t-butyl GD solution in 70% aqueous ethanol solution was added to each well of a 96-well microtiter plate and air-dried. 100 μl of HL-60 suspension was then dispensed as described above. An apoptosis-inducing activity and an antiproliferation activity against tumor cells were examined using a measurement system using MTT.

Data set [7] deals with HL-60 cells. Description: viability by Trypan Blue staining (Viability50). The data set is classed as cell-based. As to conditions: Homo sapiens, read-out: Viability50 (concentration that results in a viability of 50%). How it is done:
as §1, §2
Furthermore, a portion of the cells cultured for 24 hours as described above was stained with 0.4% Trypan Blue and examined under an optical microscope. The number of viable cells which were not stained and the number of dead cells which were stained blue were counted. The concentration of each of the samples that results in a viability of 50% (Viability50 μM) was determined. As a result, Viability50 for hexanoyl GM was 9.22 μM and that for di-t-butyl GD was 46.3 μM.

For data set [8], the target named is T1, topoisomerase II (Homo sapiens, UniProt P11388).
T1 construct: purchased TopoGEN
T1 sequence (P11388 whole entry): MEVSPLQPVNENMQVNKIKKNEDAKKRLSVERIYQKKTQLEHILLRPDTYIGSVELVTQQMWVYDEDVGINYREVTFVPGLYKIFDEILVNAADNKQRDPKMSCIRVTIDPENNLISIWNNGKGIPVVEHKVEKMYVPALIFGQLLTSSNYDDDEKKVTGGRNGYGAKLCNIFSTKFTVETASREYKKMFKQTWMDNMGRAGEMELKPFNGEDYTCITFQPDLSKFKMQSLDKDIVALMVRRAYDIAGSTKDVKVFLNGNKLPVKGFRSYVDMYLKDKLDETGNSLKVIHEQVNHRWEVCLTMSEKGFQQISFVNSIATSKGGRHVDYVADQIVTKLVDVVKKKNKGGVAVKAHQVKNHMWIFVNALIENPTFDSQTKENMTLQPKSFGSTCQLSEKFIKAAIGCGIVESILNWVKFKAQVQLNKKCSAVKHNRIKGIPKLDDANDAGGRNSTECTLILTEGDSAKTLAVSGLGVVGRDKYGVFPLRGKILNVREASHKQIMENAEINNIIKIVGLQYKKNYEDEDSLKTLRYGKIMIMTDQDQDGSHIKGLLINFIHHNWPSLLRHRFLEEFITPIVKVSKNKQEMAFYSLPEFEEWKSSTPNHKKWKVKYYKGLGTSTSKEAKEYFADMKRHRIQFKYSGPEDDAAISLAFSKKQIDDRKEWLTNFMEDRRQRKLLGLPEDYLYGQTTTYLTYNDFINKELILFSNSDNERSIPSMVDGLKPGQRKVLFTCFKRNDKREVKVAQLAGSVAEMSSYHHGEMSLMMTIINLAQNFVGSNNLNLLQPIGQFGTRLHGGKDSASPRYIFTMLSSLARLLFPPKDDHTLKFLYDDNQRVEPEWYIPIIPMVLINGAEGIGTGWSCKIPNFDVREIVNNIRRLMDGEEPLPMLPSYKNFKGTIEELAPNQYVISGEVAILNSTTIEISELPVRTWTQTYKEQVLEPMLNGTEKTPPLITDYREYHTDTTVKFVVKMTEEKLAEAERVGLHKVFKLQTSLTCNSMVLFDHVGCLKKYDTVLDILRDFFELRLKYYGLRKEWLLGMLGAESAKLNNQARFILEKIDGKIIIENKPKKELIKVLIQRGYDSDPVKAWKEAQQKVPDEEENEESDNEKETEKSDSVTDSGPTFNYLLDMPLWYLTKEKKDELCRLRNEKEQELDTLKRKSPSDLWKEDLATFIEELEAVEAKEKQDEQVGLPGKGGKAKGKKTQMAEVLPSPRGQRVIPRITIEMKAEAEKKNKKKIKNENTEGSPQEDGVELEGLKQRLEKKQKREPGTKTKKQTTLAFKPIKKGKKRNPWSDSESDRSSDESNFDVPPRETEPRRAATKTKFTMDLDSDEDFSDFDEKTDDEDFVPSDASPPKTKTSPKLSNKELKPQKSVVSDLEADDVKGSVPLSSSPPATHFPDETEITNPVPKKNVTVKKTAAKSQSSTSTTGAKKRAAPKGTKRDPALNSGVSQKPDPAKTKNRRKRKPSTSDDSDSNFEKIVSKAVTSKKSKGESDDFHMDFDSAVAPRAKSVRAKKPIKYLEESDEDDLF
Description: topoisomerase II inhibition, pBR322 DNA relaxation on agarose gel. The data set is classed as biochemical. How it is done:
(§4) (1) 2 μl of topoisomerase II (TopoGEN; 2 units/μl), 2 μl of 10-fold concentrated buffer [0.5 M Tris-HCl (pH 8.0), 1.2 M KCl, 0.1 M MgCl2, 5 mM adenosine triphosphate, 5 mM dithiothreitol], 2 μl of 0.1% bovine serum albumin (Takara Shuzo), 11 μl of distilled water and 2 μl of distilled water (control) or 2 μl of one solutions of hexanoyl GM adjusted to varying concentrations with water were mixed together. 1 μl of 0.25 μg/μl pBR322 DNA (Takara Shuzo) was added thereto. The resulting mixture was reacted at 37° C. After reacting for 30 minutes, 2 μl of an aqueous solution containing 1% sodium dodecyl sulfate, 50% glycerol and 0.02% Bromophenol Blue was added thereto to stop the reaction.
20 μl of the reaction mixture was applied to 1% agarose gel prepared using agarose L03 (Takara Shuzo) and TAE buffer [40 mM Tris, 5 mM sodium acetate, 1 mM ethylenediaminetetraacetic acid disodium salt; adjusted to pH 7.8 using acetic acid] and electrophoresed in TAE buffer. After electrophoresis, the gel was soaked in a 1 μg/ml aqueous ethidium bromide solution. The gel was exposed to ultraviolet rays to visualize the electophoretic pattern of DNA.

Data set [9] has as its target T2, topoisomerase I (Homo sapiens, UniProt P11387).
T2 construct: purchased TopoGEN
T2 sequence (P11387 1-765): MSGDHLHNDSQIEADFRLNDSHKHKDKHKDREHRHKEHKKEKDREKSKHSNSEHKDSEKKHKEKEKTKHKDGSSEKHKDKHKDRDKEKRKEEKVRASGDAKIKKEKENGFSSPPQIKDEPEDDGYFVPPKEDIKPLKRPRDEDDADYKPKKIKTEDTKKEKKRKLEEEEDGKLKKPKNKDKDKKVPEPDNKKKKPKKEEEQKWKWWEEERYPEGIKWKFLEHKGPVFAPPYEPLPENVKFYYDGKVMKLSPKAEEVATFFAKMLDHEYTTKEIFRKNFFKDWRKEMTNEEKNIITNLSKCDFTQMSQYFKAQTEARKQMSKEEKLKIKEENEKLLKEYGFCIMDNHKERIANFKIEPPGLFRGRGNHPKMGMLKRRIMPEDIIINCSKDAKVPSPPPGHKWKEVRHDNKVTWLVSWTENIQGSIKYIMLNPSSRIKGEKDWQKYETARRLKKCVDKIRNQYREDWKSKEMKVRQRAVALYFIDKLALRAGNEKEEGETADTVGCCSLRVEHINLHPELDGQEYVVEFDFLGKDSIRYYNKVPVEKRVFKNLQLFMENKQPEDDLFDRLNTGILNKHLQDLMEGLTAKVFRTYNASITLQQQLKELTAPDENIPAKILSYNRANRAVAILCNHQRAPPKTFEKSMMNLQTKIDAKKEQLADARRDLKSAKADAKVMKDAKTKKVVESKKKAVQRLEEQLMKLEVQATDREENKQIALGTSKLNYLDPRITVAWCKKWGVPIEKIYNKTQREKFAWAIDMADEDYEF
Description: topoisomerase I inhibition, pBR322 DNA relaxation on agarose gel. The data set is classed as biochemical. The conditions noted are these: topoisomerase I (TopoGEN), 37° C., 30 minutes. The protocol: as §4
20 μl of the reaction mixture was applied to 1% agarose gel prepared using agarose L03 (Takara Shuzo) and TAE buffer [40 mM Tris, 5 mM sodium acetate, 1 mM ethylenediaminetetraacetic acid disodium salt; adjusted to pH 7.8 using acetic acid] and electrophoresed in TAE buffer. After electrophoresis, the gel was soaked in a 1 μg/ml aqueous ethidium bromide solution. […]
(2) The activity of inhibiting topoisomerase I of hexanoyl GM was determined as described in Example 3-(1) except that topoisomerase I (TopoGEN; 0.01 unit/μl) was used in place of topoisomerase II and a solution containing 100 mM Tris-HCl (pH 7.9), 10 mM EDTA, 1 mM spermidine and 50% glycerol was used as 10-fold concentrated buffer.

Regarding `N[C@@H](CCC(=O)N[C@@H](CSC1C=C(O)C(=O)C1)C(=O)NCC(=O)O)C(=O)O` (stereo partly drawn) [2-hydroxy-4-glutathion-S-yl-2-cyclopenten-1-one], the “death after single oral administration” value in [1] is recorded as “no death was observed”. Moreover, the “number of dead mice by day 16” value in data set [2] (3 mg/kg single intraperitoneal dose immediately after infection) is given as 1 out of 11; in [2] (30 mg/kg single intraperitoneal dose immediately after infection), 1 out of 10.
Take `Cc1c2oc3c(C)ccc(C(=O)N[C@@H]4C(=O)N[C@H](C(C)C)C(=O)N5CCC[C@H]5C(=O)N(C)CC(=O)N(C)[C@@H](C(C)C)C(=O)O[C@@H]4C)c3nc-2c(C(=O)N[C@@H]2C(=O)N[C@H](C(C)C)C(=O)N3CCC[C@H]3C(=O)N(C)CC(=O)N(C)[C@@H](C(C)C)C(=O)O[C@@H]2C)c(N)c1=O` [actinomycin D] (I: T[dV]P[Sar][NMeV] / II: T[dV]P[Sar][NMeV]; ester I:1-I:C, II:1-II:C; linker I:N-II:N via Actinocin(9to1)): in data set [3], the “apoptotic cells (FACScan)” value is reported as “observed”. In addition, the DNA fragmentation result in data set [4] is “observed”.
On to `O=C1C=CC(O)C1O` (stereo not drawn) [cyclopentenone, 4,5-dihydroxy-2-cyclopenten-1-one], for which, in data set [5], the “death after single oral administration” value is listed as “No death was observed”. Also, the “number of dead mice by day 16” value in data set [2] (1 mg/kg single intraperitoneal dose immediately after infection) was 1 out of 11.
As for `CC(C)(C)OC1C(=O)CC(SC[C@H](NC(=O)CC[C@H](N)C(=O)O)C(=O)NCC(=O)O)C1OC(C)(C)C` (stereo partly drawn) [di-t-butyl GD, 2,3-di-t-butoxy-4-glutathion-S-yl-1-cyclopentanone], the “death after single oral administration” value in data set [1] is “no death was observed”. The “induction of apoptosis (apoptosis corpuscles under an optical microscope)” value in [6] is recorded as “apoptosis corpuscles were observed”. For the same molecule, the “final concentration down to which an antiproliferation activity against tumor cells was clearly exhibited” value in data set [6] (HL-60, MTT, 2-fold serial dilutions of 19 mM solution, air-dried in well) was ≥ 34 µM. In addition, in data set [7] (HL-60, 24 h), the IC50 was 46.3 µM.
Consider `CCCCCC(=O)OC1=CC(SC[C@H](NC(=O)CC[C@H](N)C(=O)O)C(=O)NCC(=O)O)CC1=O` (stereo partly drawn) [hexanoyl GM, 2-hexanoyloxy-4-glutathion-S-yl-2-cyclopenten-1-one], for which the “death after single oral administration” value in data set [1] is reported as “no death was observed”. Also, the “induction of apoptosis (apoptosis corpuscles under an optical microscope)” value in [6] is “apoptosis corpuscles were observed”. Moreover, the “final concentration down to which an antiproliferation activity against tumor cells was clearly exhibited” value in [6] (HL-60, 48 hours, MTT, 2-fold serial dilutions of 8.3 mM solution) is listed as ≥ 6.25 pm. The IC50 in data set [7] (HL-60, 24 hours, 0.4% Trypan Blue) was 9.22 µM. The “selectivity of inhibition, topoisomerase II as compared with topoisomerase I” value in data set [8] is given as “selective inhibitory activity on topoisomerase II”. The “concentration at which change of DNA from superhelical type to relaxed type was partially or completely inhibited” value in data set [8] (topoisomerase II (TopoGEN), pBR322 DNA, 37° C., 30 minutes) is ≥ 100 µM. Besides, the “concentration at which change of DNA from superhelical type to relaxed type was partially inhibited” value in [9] was ≥ 1000 µM.
